# Source: patent US11382904B2, “Therapeutic drug for diseases related to endoplasmic reticulum cell death in corneal endothelium” (KYOTO PREFECTURAL PUBLIC UNIVERSITY CORPORATION, priority 2013, dated 2022)
# “Also recorded” adds a separate entry of the source.
# Legend:
# [1] = system: corneal endothelial cells with Fuchs' endothelial corneal dystrophy (iFECD); test: Annexin V positive apoptosis cells by flow cytometry, iFECD; format: cell-based, human; details: for TGFβ2-induced increase of annexin V positive apoptotic cells, effect of inhibitor: TGFβ2 plus inhibitor, 24 hours
# Description: (§1) The human corneal endothelial cells (iHCEC) or corneal endothelial cells with Fuchs' endothelial corneal dystrophy (iFECD) prepared in the Preparation Examples were seeded on a culture dish coated with FNC Coating Mix and culture for about 3 days until reaching sub-confluence under the condition of 5% CO2 at 37° C. Furthermore, TGFβ2 and SB431542 were added and the cells were incubated for 24 hours under the condition of 5% CO2 at 37° C. Cells were peeled off with ACCUMAX. Annexin V or PI positive cells were measured by using Annexin V and PI and a flow cytometer (FACS Aria II (BD Biosciences, Franklin Lakes, N.J.)) with MEBCYTO Apoptosis Kit (Annexin V-FITC Kit) 100 test (4700, MEDICAL & BIOLOGICAL LABORATORIES).
# The human corneal endothelial cells (iHCEC) or corneal endothelial cells with Fuchs' endothelial corneal dystrophy (iFECD) prepared in the Preparation Examples were seeded on a culture dish coated with FNC Coating Mix and culture for about 3 days until reaching sub-confluence under the condition of 5% CO2 at 37° C. Furthermore, TGFβ2, SB431542 and TGFβ signal inhibitor A-83-01 (Wako, Osaka; catalog No: 018-22521), ALK5 inhibitor (Wako catalog No: 012-23021; CAS No. 446859-33-2; 2-(3-(6-methylpyridine-2-yl)-1H-pyrazole-4-yl)-1,5-naphthyridine) were added and the cells were incubated for 24 hours under the condition of 5% CO2 at 37° C. The cells were peeled off with ACCUMAX. Annexin V or PI positive cells were measured by using annexin V and propidium iodide (PI) with a flow cytometer (FACS Aria II (BD Biosciences, Franklin Lakes, N.J.)).
# iHCEC = test: Western blot of apoptosis associated proteins after staurosporine stimulation; format: cell-based, human; details: 15 minutes to 4 hours after staurosporine stimulation
# Description: Caspase 9, caspase 3 and poly(ADP-ribose) polymerase (PARP) were assessed by Western blot in iHCEC stimulated with a mitochondrial stress stimulant staurosporine (abcam, ab120056) in order to assess the involvement of mitochondrial failure in apoptosis.
# A stimulation was applied with staurosporine to induce a mitochondrial disorder to examine the chronological change.
# Western blot was performed in accordance with the descriptions in Example 2. The following antibodies were used in addition to those used in Example 2.
# [2] = system: corneal endothelial cells with Fuchs' endothelial corneal dystrophy (iFECD); format: cell-based, human
# Description: The human corneal endothelial cells (iHCEC) or corneal endothelial cells with Fuchs' endothelial corneal dystrophy (iFECD) prepared in the Preparation Examples were seeded on a culture dish coated with FNC Coating Mix and cultured for about 3 days until reaching sub-confluence under the condition of 5% CO2 at 37° C. Furthermore, TGFβ2, SB431542 and TG were added and the cells were incubated for 24 hours under the condition of 5% CO2 at 37° C. Cell morphology and apoptosis were then observed under a phase difference microscope.
# [3] = system: human corneal endothelial cells (iHCEC); test: Annexin V positive apoptosis cells by flow cytometry, iHCEC; format: cell-based; details: after TGFβ stimulation (11.1±0.6% before stimulation)
# Description: Further, it is known as the knowledge of the inventors that PERK phosphorylation and ATF6 cleavage were increased more in iFECD than in iHCEC by TGFβ. In order to investigate the involvement of TGFβ signaling in apoptosis, cells were treated with TGFβ and annexin V positive apoptosis cells were assessed by flow cytometry. […] Meanwhile, it is known that TGFβ increases annexin V positive cells after a stimulation in iFECD relative to the number prior to a TGFβ stimulation (as exemplary data, 19.4±1.4% prior to stimulation and 29.9±1.5% after stimulation, p<0.01). In addition thereto, it is shown that expression of the chaperone GRP78 is elevated. Further, it is shown that the expression of CHOP is elevated and apoptosis is induced by ER stress. […]
# as §1, with “Furthermore, TGFβ2 and SB431542 were added and the cells were incubated for 24 hours under the condition of 5% CO2 at 37° C. Cells were peeled off with ACCUMAX.” left out
# iHCEC and iFECD = test: Western blot of ER stress markers after TGFβ2 stimulation; format: cell-based, human
# Description: Western blot: Electrophoresis was applied to a protein extracted and obtained in a RIPA buffer with 7.5% polyacrylamide. The isolated protein was transferred onto a PVDF membrane (PALL LIFE SCIENCE (catalog number: EH-2222)). A Tris buffered saline (10 mM Tris-HCl, pH 7.4; 100 mM NaCl) (TBS-T) comprising 0.1% (vol/vol) polyethylene sorbitan monolaurate (Nacalai Tesque, catalog number: 28353-85) complemented with 5% NON FAT DRY MILK (CELL SIGNALING, catalog number: 9999) and a blotted membrane were incubated for 1 hour for a blocking operation. The membrane was immersed in anti-GRP78 antibodies diluted 1000 fold with TBS-T complemented with 5% NON FAT DRY MILK and reacted for 1 hour at room temperature. After washing three times with TBS-T and incubating with a mouse-IgG antibody HRP complex (CELL SIGNALING (catalog number: 7074P2)) and washing, a band illuminated with an ECL-ADVAVCE Western Blotting Detection Kit (GE Healthcare Japan (catalog number: RPN2135V)) was detected.
# Cells were stimulated for 24 hours with 10 ng/ml TGFβ2 (R&D SYSTEMS). Further, cells stimulated for 24 hours with 10 μM of thapsigargin (TG; Alomone Laboratories Ltd., Jerusalem, Israel) were used as a positive control of ER stress.
# Cells were stimulated with 10 ng/ml TGFβ2 (R&D SYSTEMS). Further, cells stimulated with thapsigargin (TG; Alomone Laboratories Ltd., Jerusalem, Israel) were used as a positive control of ER stress.
# In the present Example, a Western blot was performed as in Example 2 to investigate the expression of the molecular chaperone GRP78 and CHOP involved with apoptosis due to an ER stress response in order to confirm that a stronger ER stress is elicited by TGF-β in Fuchs' endothelial corneal dystrophy. Further, expression of phosphorylated PERK and ATF6 involved in stress signaling on an endoplasmic reticulum membrane was also examined therewith. A stimulation was applied with 10 ng/ml of TGFβ2 (R&D SYSTEMS). The chronological change was also examined therewith.
# [4] = system: corneal endothelial cells with Fuchs' endothelial corneal dystrophy (iFECD); test: Aggresome measurement by flow cytometry (ProteoStat Aggresome Detection Kit); format: cell-based, human; details: TGFβ2 10 ng/ml, 24 hours
# Description: 1×10^5 human corneal endothelial cells (iHCEC) or corneal endothelial cells with Fuchs' endothelial corneal dystrophy (iFECD) were seeded onto a 6 well plate coated with an FNC Coating Mix and cultured for about 2 days until reaching sub-confluence under the condition of 5% CO2 at 37° C. Furthermore, TGFβ2 (10 ng/ml; R&D SYSTEMS) was added and the cells were incubated for 24 hours under the condition of 5% CO2 at 37° C. The cells were then peeled off with ACCUMAX™ (Funakoshi), and aggresomes were measured with a flow cytometer (FACS Aria II (BD Biosciences, Franklin Lakes, N.J.) by using a ProteoStat® Aggresome Detection Kit: (EZN-51035-K100, Enabling Discovery in Life Science®).
# [5] = 10 ng/ml TGFβ2, 3 and 6 hours, more significant in iFECD than iHCEC
molecule,measurement,setting,value
"Cc1cccc(-c2n[nH]cc2-c2ccc3ncccc3n2)n1 [ALK5 inhibitor, 2-(3-(6-methylpyridine-2-yl)-1H-pyrazole-4-yl)-1,5-naphthyridine]","TGFβ2-induced increase of annexin V positive apoptotic cells, effect of inhibitor",[1],suppress apoptotic cells
CN[C@@H]1C[C@H]2O[C@@](C)([C@@H]1OC)n1c3ccccc3c3c4c(c5c6ccccc6n2c5c31)C(=O)NC4 [staurosporine],"activation of caspase 9, caspase 3 and PARP",iHCEC,activate
"C/C=C(/C)C(=O)O[C@H]1C(C)=C2[C@H]([C@@H]1OC(=O)CCCCCCC)[C@@](C)(OC(C)=O)C[C@H](OC(=O)CCC)[C@@]1(O)[C@H]2OC(=O)[C@@]1(C)O [TG, thapsigargin]",cell damage / floating cells caused by the stimulant,[2],large amount of floating cells
TGFβ2: transforming growth factor-β2 (R&D SYSTEMS) used to stimulate cells at 10 ng/ml,cell damage / floating cells caused by the stimulant,[2],damaged
same,percentage of annexin V positive apoptosis cells after stimulation,[3],12.3±0.5%
same,percentage of annexin V positive apoptosis cells after stimulation,"[1]; after TGFβ stimulation (19.4±1.4% prior to stimulation), p<0.01",29.9±1.5%
same,expression of CHOP,"iHCEC and iFECD; 10 ng/ml TGFβ2, 3 and 6 hours",increases
same,expression of the chaperone GRP78,"iHCEC and iFECD; 10 ng/ml TGFβ2, 3 and 6 hours",increases
same,expression of ATF6,iHCEC and iFECD; [5],promotes expression
same,phosphorylation of PERK (ER stress sensor),iHCEC and iFECD; [5],promotes phosphorylation
same,expression of chaperone GRP78 and stress sensor IRE1,"iHCEC and iFECD; 10 ng/ml TGFβ2, iFECD and normal cells, level high especially in iFECD",induced
same,increase of aggresomes (fluorescence intensity),[4],1.11 fold
"NC(=O)c1ccc(-c2nc(-c3ccc4c(c3)OCO4)c(-c3ccccn3)[nH]2)cc1 [SB431542, 4-[4-(1,3-benzodioxole-5-yl)-5-(2-pyridinyl)-1H-imidazole-2-yl]benzamide]","floating cells induced by TG (thapsigargin), effect of inhibitor","[2]; iFECD, TG stimulation, 24 hours",not cancelled
same,"floating cells (cell damage) induced by TGFβ2, effect of inhibitor","[2]; iFECD, TGFβ2 stimulation, 24 hours",cancelled
same,"TGFβ2-induced increase of annexin V positive apoptotic cells, effect of inhibitor",[1],cancelled; also recorded: suppresses apoptosis
"Cc1cccc(-c2nn(C(=S)Nc3ccccc3)cc2-c2ccnc3ccccc23)n1 [A-83-01, 3-(6-methyl-2-pyridinyl)-N-phenyl-4-(4-quinolinyl)-1H-pyrazole-1-carbothioamide]","TGFβ2-induced increase of annexin V positive apoptotic cells, effect of inhibitor",[1],suppress apoptotic cells
